From patent US7136698B2 (priority 1996, dated 2006)

Experiment: Current density and goserelin flux: constant current electrotransport delivery
Format: in vivo, human
Experimental: This study was undertaken to evaluate the relationship between current density and drug flux in the transdermal electrotransport delivery of goserelin. The study involved the application of electrotransport devices, applying constant current, to 12 normal male volunteers for a duration of 8 hours.
The two electrotransport treatment regimens in this study differed only in applied current density levels. The electrotransport devices delivered goserelin through the skin from polyvinyl alcohol (PVOH)-based donor hydrogels having a skin-contact surface area of 4 cm^2. The gels contained an aqueous goserelin solution. The current density levels used in this study were […]. After an 8 hour treatment period, the electrotransport devices were removed. The skin site was then washed to remove any residual goserelin. All 12 volunteers received each treatment seven days apart.
For each treatment, seven blood samples were taken over a 24 hour period commencing with the application of current from the electrotransport devices. Serum goserelin concentrations from each patient were used to calculate mean drug flux and the mean total amount of drug delivered.

SMILES: CC(C)C[C@H](NC(=O)[C@@H](COC(C)(C)C)NC(=O)[C@H](Cc1ccc(O)cc1)NC(=O)[C@H](CO)NC(=O)[C@H](Cc1c[nH]c2ccccc12)NC(=O)[C@H](Cc1cnc[nH]1)NC(=O)[C@@H]1CCC(=O)N1)C(=O)N[C@@H](CCCNC(=N)N)C(=O)N1CCC[C@H]1C(=O)NNC(N)=O [goserelin]
- average transdermal goserelin flux (applied current density 50 μA/cm^2, 8 hours): 5.8 µg/h
- average transdermal goserelin flux (applied current density 100 μA/cm^2, 8 hours): 21.6 µg/h
- increase in drug flux (current density rises from 50 to 100 μA/cm^2): almost four-fold increase
